Data on 5 molecules can be found in patent US20020142287A1, “High throughput assay to detect inhibitors of the map kinase pathway” (priority 2000, published 2002).

The structures appear in SMILES notation. “Also recorded” adds a separate entry of the source.

Assay [1] deals with SNB-19 cells. Put plainly: Induction of invasion-associated gene mRNA by phorbol ester, Northern analysis. The assay is classed as cell-based, human. To be noted: 150 nM PDBu, 24 hr incubation. As for the experimental part: (§1) Procedure for Northern Blot. Surgical specimens were immediately frozen in liquid nitrogen upon resection. Total RNA was isolated from clinical glioma specimens and cultured brain tumor cells using guanidium isothiocyanate followed by […] centrifugation. 10-20 μg of total RNA per tumor cell line per lane were electrophoresed in an agarose-formaldehyde gel and transferred to Duralon nylon membranes (Stratagene, La Jolla, Calif.). After UV cross-linking, the blots were hybridized with a ^32P-radiolabeled cDNA probe synthesized by using a random priming kit (Stratagene, La Jolla, Calif.) and ExpressHyb solution (Clontech, Palo Alto, Calif.). The blots were then exposed to X-OMAT film (Kodak, Rochester, N.Y.) and the films were developed appropriately.
The effects of a test compound, a phorbol ester (a Protein Kinase C (PKC) activator), on the coordinated expression of a panel of sequences was determined. SNB-19 cells were cultured in the presence of 150 nM phorbol 12, 13-dibutyrate (PDBu, Sigma Chemical Co.) for 24 hr. Expression of GnT-V, c-ets-1, uPA, MMP-1, and MMP-3 mRNA was then assayed by northern blot on total RNA from the cells. A panel of nucleic acid probes corresponding to GnT-V, c-ets-1, uPA, MMP-1, and MMP-3 were prepared as described above and utilized to detect expression of the corresponding mRNA in treated or untreated SNB-19 cells. […]

In assay [2] the test system is SNB-19 cells. Put plainly: Suppression of PDBu-mediated mRNA induction by a MAPKK inhibitor, Northern analysis. In kind it is cell-based, human. The method, then: as §1
The assay was modified for use in the identification of compounds that can inhibit gene expression. To identify compounds that may affect the growth, migration or invasivity of tumor cells, the assay described below is provided. To activate the quiescent cells, SNB-19 glioma cells are cultured in the presence of 150 nM Phorbol 12, 13-dibutyrate (PDBu, Sigma Chemical Co.) for 24 hr. The cells are then contacted with a test compound that may affect expression of GnT-V, c-ets-1, uPA, MMP-1, or MMP-3. Compounds shown to inhibit expression of any, multiple, or all of the sequences are selected for further study. […]

In assay [3] the test system is SNB-19 cells. In words: Growth-stimulated induction of c-fos and invasion-associated mRNA in quiescent cells plated into fresh growth media, Northern analysis. To be noted: for effect on expression of uPA, GnT-V and c-ets-1 mRNA induced by growth stimulation: 2 and 6 hr after plating into fresh growth media. In kind it is cell-based, human. As for the experimental part:
as §1
Modulators of the MAPK pathway also modulated the growth-stimulated mRNA expression of c-Fos and invasion-related protein MRNA expression. Quiescent SNB-19 cells were plated in fresh growth media either in the presence of 80 μM PD98059, a MEK/MAPKK inhibitor, or the absence of inhibitor, as a control. Induction was measured by observing MRNA expression over time (FIG. 6).
Quiescent SNB-19 cells were growth induced by plating into fresh growth media for 2 and 6 hr. c-Fos expression was monitored by observing the mRNA levels of the downstream genes uPA, GNT-V, and c-ets-1 (see FIG. 8).

Assay [4] relates to c-Fos protein in SNB-19 cells. In words: Growth-stimulated c-Fos protein induction, Western blot. The assay is classed as cell-based, human. Particulars: 50 μM U0126, 1 μM FTI, 50 μM PD98059; for c-Fos protein induction: 0.5-8 hr after plating. As for the experimental part:
Quiescent SNB-19 cells were plated into fresh growth media and incubated for 0.5, 1, 2, 3, 4, 6, and 8 hr in the presence of inhibitors of the MAPK pathway, and the cells were harvested for c-Fos protein analysis by Western blot. 20 μg of total protein per lane were used. c-Fos protein induction without inhibitors was shown as a control.
Procedure for Western Blot. To detect c-Ets-1 and c-Fos protein expression in brain tumor cell lines, 20 μg of protein cell lysates were loaded on a 8% SDS-polyacrylamide gel immediately after boiling each sample in the presence of 2% mercaptoethanol. After electrophoresis, proteins were transferred to a PVDF membrane and the membrane was blocked with 5% BSA in PBS. The membrane was then incubated with either a 1:10,000 dilution of monoclonal anti-human c-Ets-1 antibody (Clone 47, Transduction Laboratory, Ky.) or anti-human c-Fos antibody (Santa Cruz Biotechnology, Inc.) in Tris-buffered saline pH 7.4 (TBS) containing 2% BSA and 0.1% Tween 20 for 1 h at room temperature. The membrane was then washed with TBS containing 2% BSA and 0.1% Tween 20 for 10 min, followed by washing twice with 0.1% Tween 20 in TBS. Next, the membrane was incubated with a 1:10000 dilution of horseradish peroxidase-conjugated anti-mouse IgG (Amersham, UK) for 1 h at room temperature in 2% BSA in TBS containing 0.1% Tween 20. The membrane was then washed as described above, and developed with the ECL Chemiluminescence detection system (Amersham, UK) according to manufacturer's instructions.
(Immunoblotting shows a protein as a band on a membrane.)

In assay [5] the test system is c-fos promoter/luciferase gene transfectant (clone 60) of SNB-19 glioma cells. Put plainly: Luciferase mRNA expression in stable c-fos promoter/luciferase gene transfectant, Northern analysis. In kind it is cell-based, human. To be noted: 1, 2, 3, 6, and 24 hr in the presence of inhibitor. As for the experimental part:
A quiescent c-fos promoter/luciferase gene transfectant (clone 60) was plated into fresh growth media and incubated for 1, 2, 3, 6, and 24 hr in the presence of MEK/MAPKK inhibitors, and the cells were harvested for detection of luciferase mRNA expression by Northern analysis. 10 μg of total RNA per lane were used.
The 498 bp promoter region of the human c-Fos gene was amplified by genomic PCR using sense primer 5′-[…]-3′ (SEQ ID No. 7) and antisense primer 5′-[…]-3′ (SEQ ID No. 8), ligated into the pCR II vector (Invitrogen, San Diego, Calif.). […] Antisense orientation of the c-fos promoter/pCR II plasmid was digested with Hind III and Xho I restriction enzymes and the digested fragment was ligated into the Hind III and Xho I sites of the luciferase vector pGL3-basic (Promega, Madison, Wis.). The c-fos promoter/pGL3 plasmid DNA was digested with Sma I and Xba I and the digested fragment was ligated into the Nru I and Xba I sites of the pcDNA 3 vector (Invitrogen). This final construct contains the luciferase gene under control of the c-fos promoter instead of the control of the CMV promoter. The plasmid DNA was stably transfected into human glioma SNB-19 cells using the cationic liposome system, DOTAP (Boehringer Mannheim, Indianapolis, Ind.). The transfected cells were further cultured for 3 weeks in selection medium containing 800 μg/ml of G418 and then individual clones were isolated with cloning rings. Isolated clones were further cultured for 4 weeks in selection medium and were examined for luciferase gene expression by Northern analysis. […] Three representative clones (34, 56, and 60) were further characterized.
The suppression of luciferase gene expression by inhibitors of MAPK pathway in the stable transfectants was determined.

Assay [6] concerns p42/p44 ERK/MAPK proteins. Particulars: 50 μM U0126, SNB-19 cells. The method, then: Quiescent SNB-19 cells were plated into fresh growth media and incubated for 0.5, 1, 2, 3, 4, 6, and 8 hr, and the cells were harvested for Northern analysis (FIG. 10A-10C) and Western blot analysis (FIG. 10D).
Another assay deals with SNB-19 glioma cells. Particulars: data not shown.
The next assay concerns MEK/MAPK Kinase (MAPKK). To be noted: cited from earlier work.

In the case of `CCCC(=O)O[C@@H]1[C@@H](C)[C@@]2(O)[C@@H](C=C(CO)C[C@]3(O)C(=O)C(C)=C[C@@H]23)[C@@H]2C(C)(C)[C@]12OC(=O)CCC` [PDBu, Phorbol 12, 13-dibutyrate], the “induction of GnT-V, c-ets-1, uPA, MMP-1, and MMP-3 mRNA expression” value in the assay on SNB-19 cells [1] is “marked induction; also recorded: induced”.

Take `COc1cccc(-c2cc(=O)c3ccccc3o2)c1N` [PD98059, 2′-amino-3′-methoxyflavone]: in the assay on SNB-19 cells [2] (150 nM PDBu 24 hr, 15 and 80 μM PD98059, 15 μM), the “PDBu-induced GnT-V, c-ets-1, MMP-1, and MMP-3 mRNA induction (b19 also uPA)” value is “completely abolished”. In addition, the “uPA mRNA expression in PDBu-stimulated cells” value with SNB-19 cells [2] (150 nM PDBu, PD98059 15 and 80 μM) is “decreased in a dose-dependent manner”. Also, the “growth-stimulated induction of c-fos, c-ets-1, GnT-V, and uPA mRNA expression” value with SNB-19 cells [3] (80 μM PD98059, 0.5-8 hr after plating into fresh growth media) is on record as “suppression; also recorded: suppressed”. For the same molecule, in assay [4], the “potency of inhibition of c-Fos protein induction (rank order)” value is 50 μM U0126>1 μM FTI>50 μM PD98059 and the c-Fos protein induction result is “weak suppression”. The “luciferase mRNA expression” value in assay [5] is “slightly suppressed”. In addition, the “luciferase mRNA expression” value in assay [5] (listed as PD98056) is recorded as “suppress”.

With `N#CC(=C(/N)Sc1ccccc1N)/C(C#N)=C(\N)Sc1ccccc1N` [U0126], in the assay on SNB-19 cells [3] (50 μM U0126, 0.5-8 hr after plating into fresh growth media), the “growth-stimulated induction of GnT-V, uPA and c-ets-1 mRNA expression” value is on record as “strongly suppressed; also recorded: suppressed the induction”. Further, in assay [4], the “potency of inhibition of c-Fos protein induction (rank order)” value is listed as 50 μM U0126>1 μM FTI>50 μM PD98059 and the c-Fos protein induction entry is on record as “completely inhibited”. Also, in assay [6], the “phosphorylation of p42/p44 ERK/MAPK” value is given as “completely inhibited”. The “luciferase mRNA expression” value in assay [5] is reported as “greatly suppressed; also recorded: greater inhibition”. Besides, the “adhesion-mediated protein tyrosine phosphorylation” value with SNB-19 glioma cells is given as “little effect”. Moreover, the “potency as MEK/MAPKK inhibitor relative to PD98059” value in the assay with MEK/MAPK Kinase (MAPKK) was 30 times.

As for `COC[C@H]1OC(=O)c2coc3c2[C@@]1(C)C1=C(C3=O)[C@@H]2CCC(=O)[C@@]2(C)C[C@H]1OC(C)=O` [Wortmannin], in the assay on SNB-19 cells [3], the “effect on expression of uPA, GnT-V and c-ets-1 mRNA induced by growth stimulation” value is on record as “no effect”.

Take `COc1cc2ncnc(Nc3cccc(Br)c3)c2cc1OC` [PD153035]: in the assay with SNB-19 cells [3], the “effect on expression of uPA, GnT-V and c-ets-1 mRNA induced by growth stimulation” value is “no effect”.
